Data on two compounds can be found in US20260257992A1, “AGONISTS OF SMALL HETERODIMER PARTNER FOR CANCER THERAPY” (THE BOARD OF TRUSTEES OF THE UNIVERSITY OF ILLINOIS, priority 2023, published 2026).

One data set concerns Treg abundance. Description: In vivo model of immune tolerance to a chronic antigen.
For another data set, the system named is E0771 tumors. The experiment in a line: Survival after orthotopic graft of a suboptimal number of E0771-luc cells. The class given is in vivo, mouse. The settings on record: treatment ceased after 18 days. The source says:
We then evaluated DSHN in a model where a low, suboptimal number of E0771-luc cells were grafted orthotopically. Since NR0B2 was also implicated in regulating myeloid cell expression of PD-L1, we investigated the effect of acute DSHN combined with anti-PD-L1 (αPDL1) treatment on subsequent outgrowth of E0771 tumors. Treatment was ceased after 18 days and mice were monitored through time. […] We next assessed the effects of DSHN combined with αPDL1 on growth of primary tumors (optimal number of cells used to establish graft). […] We then evaluated the ability of DSHN to impact established metastatic disease—a stage that is refractory to standard of care therapy and immune checkpoint blockade. […] In summary, the tool compound DSHN provides proof of principle that the NR0B2-myeloid cell-Treg axis can be targeted for the treatment of breast cancer.

In a further data set the test system is 4T1 tumors. Description: Orthotopic 4T1 primary tumor growth. The class given is in vivo, mouse. The settings on record: DSHN combined with αPDL1. From the text:
FIG. 3A-3F. DSHN, a tool small molecule agonist of NR0B2 reduces macrophage/dendritic cell induced Treg expansion and tumor growth in murine models. […] (B) Dendritic cells (left-CD11B^+; CD11C^+) and CD4^+ T cells (right) were isolated from MMTV-PyMT tumors by FACS, and treated with vehicle or DSHN for 3d. The resulting frequency of Treg (CD4^+; CD25^+; FoxP3^+) was quantified by flow cytometry (right graph), (N=3-5/group, t test). […] The percentage of divided CD8+ T cells in the second round was quantified. (D) DSHN increases efficacy of αPDL1 therapy on orthotopic E0771 tumors. An optimal number of E0771 cells were grafted into FoxP3-EGFP mice and allowed to grow until tumors reached 100 mm^3. […] At the end of the study, lungs were removed and imaged ex vivo, quantified data indicated (N=10, 1-way ANOVA followed by Newman-Keuls multiple comparison test). […]
We then evaluated DSHN in a model where a low, suboptimal number of E0771-luc cells were grafted orthotopically. […] Treatment was ceased after 18 days and mice were monitored through time. […] We next assessed the effects of DSHN combined with αPDL1 on growth of primary tumors (optimal number of cells used to establish graft). […] We then evaluated the ability of DSHN to impact established metastatic disease—a stage that is refractory to standard of care therapy and immune checkpoint blockade. […]

A further data set in a line: Aqueous solubility. It counts as physicochemical.
Data set [1] is described as follows: Low cellular toxicity screen. The class given is cell-based. On the set-up: key: ✓: using strict cutoffs with respect to DSHN for passing each metric; X: using strict cutoffs with respect to DSHN for passing each metric. The settings on record: pass/fail with respect to DSHN. The source says:
Development of a more efficacious NR0B2 agonist. While DSHN was a useful proof-of-concept small molecule, macrophages required high doses and chronic exposure for robust influences on subsequent Tregs expansion. […] Therefore, we synthesized several derivatives of DSHN and screened them using a reporter assay which makes use of the endogenous cholesterol homeostatic feedback loop, where FXR activation upregulates NR0B2, which then inhibits LXR and its normal induction of ABCA1. We then followed this screen with several others with stringent cutoffs: effect on endogenous ABCA1 and IL1β expression, reduction of Treg expansion in either macrophage or DC co-cultures, and low cellular toxicity (FIG. 5A, Table 4).
Resazurin cell viability assay. 20,000 cells were seeded into 96 well f-bottom, black plates (Corning Costar) and cell viability was measured using 100 μL resazurin per well at 0.3 mg/mL (Acros Organics). The fluorescence signal was quantified by plate reader (560 nm excitation/590 nm emission) at 2-3 h.

The test system of the next data set is Treg expansion. Description: Treg expansion in co-culture with compound-treated splenic CD11C+ dendritic cells. The class given is cell-based, mouse. Details: key to Treg expansion Dendritic Cells: ✓: using strict cutoffs with respect to DSHN for passing each metric; X: using strict cutoffs with respect to DSHN for passing each metric. How it is done: Preparation of Bone Marrow-Derived Macrophages (BMDMs) and Dendritic Cells. Bone marrow cells were collected from mouse tibia and femur. Cells were passed through 70-micron cell strainer and subsequently cultured 10 mL complete RPMI media supplemented with 20 ng/mL of recombinant murine M-CSF (576406; BioLegend, 315-02 PeproTech). On day 3, additional 5 ml of the complete media was added. On day 7, media was replaced. BMDMs were harvested on day 10 using cell stripper solution for further experiments. Dendritic cells were isolated from the spleens of wildtype, using mouse CD11c UltraPure MicroBeads (130-125-835; Miltenyi Biotec) according to the manufacturer's instructions) and cultured in RPMI medium supplemented with 10% heat-inactivated charcoal-stripped FBS, 50 μM β-mercaptoethanol, 1% sodium pyruvate, 1% nonessential amino acids, % penicillin/streptomycin, and 1% Glutamax.
In vitro Treg expansion assays. T cells were cultured in RPMI medium supplemented with 10% heat-inactivated charcoal-stripped FBS, 50 μM β-mercaptoethanol (Gibco), 1% sodium pyruvate, 1% nonessential amino acids, % penicillin/streptomycin, and 1% Glutamax (Gibco). Naïve CD4^+ T cells were isolated from the spleens of wildtype and OT-II, using Naive CD4^+ T Cell Isolation Kit (Miltenyi Biotec according to the manufacturer's instructions). T cells were labeled with the vital dye CFSE (BioLegend) or Cell Trace Violet (ThermoFisher) according to the manufacturer's instructions. For wildtype Treg expansion in presence of antigen presenting cells, naïve CD4^+ T cells were co-cultured with APC at indicated ratio in the presence of 0.5 μg/mL (anti-CD3 BioLegend), 0.5 ng/mL TGFβ (BioLegend) and 0.5 ng/ml IL-2 (BioLegend) for 72 hr at 37° C. For OT-II Treg expansion, OTII naïve CD4^+ T cells from OT-II mice were activated by antigen presentation by culturing BMDMs were primed with 10 μg/mL OVA323-339 (Bachem) and 0.5 μg/mL LPS (Sigma). naïve CD4+ T cells from OTII mice were co-cultured with primed APC at indicated ratio for 72 hrs. After 72 hrs of culture, cells were transferred into V-bottom plates (BD), pelleted by centrifugation and incubated with antibody staining mix containing Ghost Dye™ Red 780 viability dye diluted in PBS for 15 minutes at 4° C. Cell surface antigens were stained for 15 minutes at 4° C. with an antibody staining mix containing Ghost Dye™ Red 780 viability dye diluted in PBS. Cells were fixed and permeabilized with BD Cytofix/Cytoperm™ for 20 minutes at 4° C. Antibodies against intracellular antigens were diluted in 1×BD Perm/Wash™ buffer and cells were stained for 30 minutes at 4° C. Cytometry data were acquired on a LSRII, Fortessa, Symphony A1 (Becton Dickinson, NJ). Foxp3 induction was assessed by expression of FOXP3.

`CCN(CC)S(=O)(=O)c1cccc2cc(C(=O)O)c(O)cc12` [DSHN, reference compound]: the “Treg abundance in vivo” value with Treg abundance is given as “reduce Treg abundance”. For the same compound, the “Survival of one DSHN-only treated mouse, no palpable tumor” value with E0771 tumors (post graft) is recorded as “more than 400 days”. In the data set on E0771 tumors (versus placebo), the “Survival time, combined with αPDL1” value is recorded as “significantly increased survival time”. The “Growth of established 4T1 tumors, combined with αPDL1” value in the data set on 4T1 tumors was “decreased growth”. In the data set “Aqueous solubility”, the Aqueous solubility entry is reported as “poor aqueous solubility”.

Take `CCN(CC)S(=O)(=O)c1cccc2cc(C(=O)OC)c(O)cc12` [DSHN-OMe, Methyl 5-(N,N-diethylsulfamoyl)-3-hydroxy-2-naphthoate]: in data set [1], the “Low Toxicity” value was “✓”. The “Tregs, splenic CD11C+ (DC-enriched) cells” value with Treg expansion (50 μM DSHN-OMe versus 100 μM DSHN) is “significantly fewer Tregs compared to twice the dose of DSHN”. The “Treg expansion Dendritic Cells” value in the data set with Treg expansion (pass/fail with respect to DSHN) is recorded as “✓”.
